Measured values reported in patent US6525001B1, “Substituted pyrimidine and pyridine herbicides” (Mid-American Commercialization Corporation, priority 1997, dated 2003).

Experiments:
Format in all cases: in vivo
[1] = system: bedstraw (Galium aparine); assay: Test B pre-/postemergence; set-up: key: 0 is no effect; 10 is complete control; conditions: for Bedstraw plant response rating: Preemergence
Method in brief: (§1)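 Response scores run from 0, meaning no effect, to 10, meaning complete control, assigned by eye relative to controls twelve to sixteen days after spraying. Treatment was both preemergence on planted seed and postemergence on plants at the 1- to 4-leaf stage.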

[2] = system: blackgrass (Alopecurus myosuroides); assay: Test B pre-/postemergence; set-up: key: 0 is no effect; 10 is complete control; conditions: for Blackgrass plant response rating: Preemergence
Method in brief: as §1

[3] = system: broadleaf signalgrass (Brachiaria decumbens); assay: Test B pre-/postemergence; set-up: key: 0 is no effect; 10 is complete control; conditions: for B. signalgrass plant response rating: Preemergence
Method in brief: as §1

[4] = system: cocklebur (Xanthium strumarium); assay: Test B pre-/postemergence; set-up: key: 0 is no effect; 10 is complete control; conditions: for Cocklebur plant response rating: Preemergence
Method in brief: as §1

corn (Zea mays) = assay: Test B pre-/postemergence; set-up: key: 0 is no effect; 10 is complete control; conditions: for Corn plant response rating: Preemergence
Method in brief: as §1

[5] = system: crabgrass (Digitaria sanguinalis); assay: Test B pre-/postemergence; set-up: key: 0 is no effect; 10 is complete control; conditions: for Crabgrass plant response rating: Preemergence
Method in brief: as §1

[6] = system: giant foxtail (Setaria faberii); assay: Test B pre-/postemergence; set-up: key: 0 is no effect; 10 is complete control
Method in brief: as §1

[7] = system: momingglory (Ipomoea hederacea); assay: Test B pre-/postemergence; set-up: key: 0 is no effect; 10 is complete control
Method in brief: as §1

[8] = system: pigweed (Amaranthus retroflexus); assay: Test B pre-/postemergence; set-up: key: 0 is no effect; 10 is complete control
Method in brief: as §1

[9] = system: purple nutsedge (Cyperus rotundus); assay: Test B pre-/postemergence; set-up: key: 0 is no effect; 10 is complete control
Method in brief: as §1

rape (Brassica napus) = assay: Test B pre-/postemergence; set-up: key: 0 is no effect; 10 is complete control
Method in brief: as §1

soybean (Glycine max) = assay: Test B pre-/postemergence; set-up: key: 0 is no effect; 10 is complete control
Method in brief: as §1

[10] = system: sugar beet (Beta vulgaris); assay: Test B pre-/postemergence; set-up: key: 0 is no effect; 10 is complete control
Method in brief: as §1

[11] = system: velvetleaf (Abutilon theophrasti); assay: Test B pre-/postemergence; set-up: key: 0 is no effect; 10 is complete control
Method in brief: as §1

[12] = system: wheat (Triticum aestivum); assay: Test B pre-/postemergence; set-up: key: 0 is no effect; 10 is complete control
Method in brief: as §1

wild oat (Avena fatua) = assay: Test B pre-/postemergence; set-up: key: 0 is no effect; 10 is complete control
Method in brief: as §1

[13] = system: bamyardgrass (Echinochloa crus-galli); assay: Test B flood test
Method in brief: (§2)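 Each value is a visual injury score relative to controls, with 10 meaning complete control and 0 no effect. Evaluation took place twelve to sixteen days after the 2-leaf-stage plants were treated and kept in the greenhouse.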

[14] = system: duck salad (Heteranthera limosa); assay: Test B flood test
Method in brief: as §2

rice (Oryza sativa) = assay: Test B flood test
Method in brief: as §2

[15] = system: smallflower flatsedge (Cyperus difformis); assay: Test B flood test
Method in brief: as §2

[16] = Rate 250 g/ha, Postemergence (so in the source)
[17] = Rate 62 g/ha, Postemergence (flood test)
[18] = Rate 125 g/ha, Postemergence, flood test
[19] = Rate 250 g/ha, Postemergence (flood test species)
[20] = Rate 125 g/ha, Postemergence section (flood test species)

Cc1cnc(-c2ccc(C#N)cc2)nc1Cc1cccc(C(F)(F)F)c1 [Compound 30]
10: Bedstraw plant response rating ([1]; Rate 125 g/ha) | Plant response rating, Bedstraw [1, 16] | Plant response rating, Redroot pigweed [8, 16] | Plant response rating, Rape (rape (Brassica napus); Rate 250 g/ha, Postemergence) | Plant response rating, Sugarbeets ([10]; Rate 62 g/ha, Postemergence) | Sugarbeets plant response rating ([10]; Rate 125 g/ha, Postemergence) | Plant response rating, Sugarbeets ([10]; Rate 250 g/ha, Postemergence) | Plant response rating, Sugarbeets [10, 16]
4: B. signalgrass plant response rating ([3]; Rate 125 g/ha) | Plant response rating, Rape (rape (Brassica napus); Rate 62 g/ha, Postemergence) | Plant response rating, Barnyardgrass [13, 19] | Plant response rating, Ducksalad [14, 18] | Plant response rating, S. Flatsedge [15, 17]
0: Plant response rating, Blackgrass ([2]; Rate 62 g/ha, Postemergence) | Blackgrass plant response rating ([2]; Rate 62 g/ha) | Cocklebur plant response rating ([4]; Rate 62 g/ha) | Cocklebur plant response rating ([4]; Rate 125 g/ha) | Plant response rating, Cocklebur [4, 16] | Corn plant response rating (corn (Zea mays); Rate 62 g/ha) | Corn plant response rating (corn (Zea mays); Rate 125 g/ha) | Plant response rating, Corn (corn (Zea mays); [16]) | Plant response rating, Nutsedge ([9]; Rate 62 g/ha, Postemergence) | Nutsedge plant response rating ([9]; Rate 62 g/ha, Preemergence) | Nutsedge plant response rating ([9]; Rate 125 g/ha, Postemergence) | Nutsedge plant response rating ([9]; Rate 125 g/ha, Preemergence) | Plant response rating, Nutsedge [9, 16] | Rape plant response rating (rape (Brassica napus); Rate 62 g/ha, Preemergence) | Soybean plant response rating (soybean (Glycine max); Rate 62 g/ha, Preemergence) | Plant response rating, Soybean (soybean (Glycine max); Rate 125 g/ha, Preemergence) | Plant response rating, Soybean (soybean (Glycine max); [16]) | Wheat plant response rating ([12]; Rate 62 g/ha, Preemergence) | Plant response rating, Wheat ([12]; Rate 125 g/ha, Preemergence) | Plant response rating, Wheat [12, 16]
1: Plant response rating, Bedstraw ([1]; Rate 62 g/ha, Postemergence) | Plant response rating, Blackgrass ([2]; Rate 125 g/ha, Postemergence) | Plant response rating, Blackgrass ([2]; Rate 250 g/ha, Postemergence) | Plant response rating, B. signalgrass ([3]; Rate 62 g/ha, Postemergence) | B. signalgrass plant response rating ([3]; Rate 62 g/ha) | Plant response rating, Corn (corn (Zea mays); Rate 62 g/ha, Postemergence) | Plant response rating, Crabgrass ([5]; Rate 62 g/ha, Postemergence) | Crabgrass plant response rating ([5]; Rate 62 g/ha) | Plant response rating, Crabgrass ([5]; Rate 125 g/ha, Postemergence) | Plant response rating, Giant foxtail ([6]; Rate 62 g/ha, Postemergence) | Giant foxtail plant response rating ([6]; Rate 62 g/ha, Preemergence) | Giant foxtail plant response rating ([6]; Rate 125 g/ha, Postemergence) | Morningglory plant response rating ([7]; Rate 62 g/ha, Preemergence) | Morningglory plant response rating ([7]; Rate 125 g/ha, Preemergence) | Velvetleaf plant response rating ([11]; Rate 62 g/ha, Preemergence) | Wheat plant response rating ([12]; Rate 62 g/ha, Postemergence) | Wild oats plant response rating (wild oat (Avena fatua); Rate 62 g/ha, Postemergence) | Wild oats plant response rating (wild oat (Avena fatua); Rate 62 g/ha, Preemergence) | Plant response rating, Wild oats (wild oat (Avena fatua); Rate 125 g/ha, Preemergence) | Plant response rating, Rice (rice (Oryza sativa); [17]) | Rice plant response rating (rice (Oryza sativa); [20])
8: Plant response rating, Cocklebur ([4]; Rate 125 g/ha, Postemergence) | Plant response rating, Cocklebur ([4]; Rate 250 g/ha, Postemergence) | Plant response rating, Crabgrass [5, 16] | Rape plant response rating (rape (Brassica napus); Rate 125 g/ha, Postemergence) | Plant response rating, Velvetleaf ([11]; Rate 250 g/ha, Postemergence) | Plant response rating, S. Flatsedge [15, 19]
2: Blackgrass plant response rating ([2]; Rate 125 g/ha) | Plant response rating, Blackgrass [2, 16] | Plant response rating, B. signalgrass ([3]; Rate 125 g/ha, Postemergence) | Plant response rating, B. signalgrass ([3]; Rate 250 g/ha, Postemergence) | Plant response rating, Corn (corn (Zea mays); Rate 125 g/ha, Postemergence) | Plant response rating, Corn (corn (Zea mays); Rate 250 g/ha, Postemergence) | Plant response rating, Giant foxtail ([6]; Rate 250 g/ha, Postemergence) | Plant response rating, Morningglory ([7]; Rate 62 g/ha, Postemergence) | Redroot pigweed plant response rating ([8]; Rate 62 g/ha, Preemergence) | Plant response rating, Nutsedge ([9]; Rate 250 g/ha, Postemergence) | Rape plant response rating (rape (Brassica napus); Rate 125 g/ha, Preemergence) | Plant response rating, Velvetleaf ([11]; Rate 125 g/ha, Preemergence) | Wheat plant response rating ([12]; Rate 125 g/ha, Postemergence) | Plant response rating, Wheat ([12]; Rate 250 g/ha, Postemergence) | Wild oats plant response rating (wild oat (Avena fatua); Rate 125 g/ha, Postemergence) | Plant response rating, Wild oats (wild oat (Avena fatua); Rate 250 g/ha, Postemergence) | Plant response rating, Wild oats (wild oat (Avena fatua); [16]) | Plant response rating, Rice (rice (Oryza sativa); [19])
7: Plant response rating, Crabgrass ([5]; Rate 250 g/ha, Postemergence) | Plant response rating, Redroot pigweed ([8]; Rate 62 g/ha, Postemergence) | Redroot pigweed plant response rating ([8]; Rate 125 g/ha, Preemergence)
3: Bedstraw plant response rating ([1]; Rate 62 g/ha) | Crabgrass plant response rating ([5]; Rate 125 g/ha) | Plant response rating, Morningglory [7, 16] | Plant response rating, Rape (rape (Brassica napus); [16]) | Plant response rating, Soybean (soybean (Glycine max); Rate 62 g/ha, Postemergence) | Soybean plant response rating (soybean (Glycine max); Rate 125 g/ha, Postemergence) | Plant response rating, Barnyardgrass [13, 17] | Plant response rating, Barnyardgrass [13, 18] | Plant response rating, Ducksalad [14, 17]
5: Plant response rating, Cocklebur ([4]; Rate 62 g/ha, Postemergence) | Giant foxtail plant response rating ([6]; Rate 125 g/ha, Preemergence) | Morningglory plant response rating ([7]; Rate 125 g/ha, Postemergence) | Plant response rating, Velvetleaf ([11]; Rate 62 g/ha, Postemergence) | Plant response rating, Ducksalad [14, 19]
6: Plant response rating, Bedstraw ([1]; Rate 125 g/ha, Postemergence) | Plant response rating, Bedstraw ([1]; Rate 250 g/ha, Postemergence) | Plant response rating, B. signalgrass ([3]; Rate 250 g/ha, Postemergence as printed in head r139 (second section for compounds 26-50)) | Plant response rating, Soybean (soybean (Glycine max); Rate 250 g/ha, Postemergence) | Sugarbeets plant response rating ([10]; Rate 62 g/ha, Preemergence) | Velvetleaf plant response rating ([11]; Rate 125 g/ha, Postemergence) | Plant response rating, Velvetleaf [11, 16] | S. Flatsedge plant response rating [15, 20]
9: Plant response rating, Giant foxtail [6, 16] | Plant response rating, Morningglory ([7]; Rate 250 g/ha, Postemergence) | Redroot pigweed plant response rating ([8]; Rate 125 g/ha, Postemergence) | Plant response rating, Redroot pigweed ([8]; Rate 250 g/ha, Postemergence) | Plant response rating, Sugarbeets ([10]; Rate 125 g/ha, Preemergence)
